From patent US9604900B2, “Inhibitors of viral replication, their process of preparation and their therapeutical uses” (LABORATOIRE BIODIM, priority 2011, dated 2017)

Each compound was assayed on NL4-3 strain of HIV-1 (assay: HIV replication inhibition: CellTiter-Glo cyto-protection assay in MT4 cells infected with NL4-3 virus). Conditions: Human immunodeficiency virus 1, NL43, 120 h, concentration giving 50% cyto-protection, 5 days incubation, CellTiter-Glo viability readout.
Assay type: cell-based
Description: The antiviral activity, particularly against HIV, of compounds according to the invention is evaluated by the protocol described below.
Preparation of Virus stock of the NL4-3 strain of HIV-1 (Adachi et al, J Virol, 1986, 59(2):284-91).
The virus was prepared as described in Lopez et al (Lopez et al, Proc Natl Acad Sci USA., 2006, 103(40):14947-52, by transfecting 2×10^6 293 T cells (CRL-1573, ATCC) with following modifications: 6 μg of NL4-3 proviral DNA molecular clone were mixed with Fugene 6 transfection reagent from Roche, and used according to manufacturer's instructions. Forty eight hours later, transfected cell supernatants were harvested, filtered through 0.45-μm-pore-size filters, quantified for HIV-1 p24 antigen by using a Innotest HIV antigen mAb assay (Ingen) according to manufacturer's instructions, and used in infection experiments.
Serial dilutions of compounds to be tested were prepared in complete RPMI medium from 10 mM DMSO stock solutions, and distributed in a volume of 20 μl in 96 well Falcon 353072 Microtest™ tissue culture plate, in order to get 0.5% DMSO final concentration in each well, after the addition of infected cells. Control wells contained also 0.5% DMSO final concentration but no compound.
MT4 cells (from the NIH AIDS Research and Reference Reagent Program) in RPMI complete medium were counted (10×10^6 cells per well in Falcon 353047 Multiwell™ 24 well) and infected for 2 hours at 37°, at a multiplicity of infection (moi) of 0.0001-0.00001. Cells were then centrifuged 3 min at 3000 rpm, and washed two times in 1 ml PBS to remove viruses that have not entered in cells. Infected cells were resuspended in complete RPMI at 1.25×10^6 cells/ml, and 80 μl of infected cells were distributed in each well containing compounds to be tested or control wells. The plates were then incubated at 37° for 5 days.
Assay used to measure the inhibition of HIV replication by the compounds (according to Gregg S. Jones et al., Antimicrobial Agents and Chemotherapy, 2009, 53 (3): 1194-1203).
After 5 days of incubation, 50 μl of CellTiter-Glo reagent (Promega Biosciences, Inc., Madison Wis., USA) were added to each well. Cell lysis was carried out at room temperature during 10 min, 150 μl of lysates were transferred in Packard Optiplate 96 well, and luminescence was read on a Fluoroskan (Thermo Scientific).

Row | SMILES | EC50 [µM]
1 | CC(C)(C)OC(C(=O)O)c1c(C(F)(F)F)ccc(F)c1-c1ccc2c(c1)CCCO2 (stereo not shown) [Example 34, 2-(tert-butoxy)-2-[2-(3,4-dihydro-2H-1-benzopyran-6-yl)-3-fluoro-6-(trifluoromethyl)phenyl]acetic acid] | 14
2 | Cc1ccc(C)c(C(OC(C)(C)C)C(=O)O)c1-c1ccc2c(c1)CCCO2 (stereo not shown) [Example 27, 2-(tert-butoxy)-2-[2-(3,4-dihydro-2H-1-benzopyran-6-yl)-3,6-dimethylphenyl]acetic acid] | 1.6
3 | CC(C)(C)OC(C(=O)O)c1c(-c2ccc3c(c2)CCCO3)cccc1C(F)(F)F (stereo not shown) [Example 33, 2-(tert-butoxy)-2-[2-(3,4-dihydro-2H-1-benzopyran-6-yl)-6-(trifluoromethyl)phenyl]acetic acid] | 25
4 | CC(C)(C)OC(C(=O)O)c1c(-c2ccc3c(c2)CCCO3)ccc2ncccc12 (stereo not shown) [Example 20, 2-(tert-butoxy)-2-[6-(3,4-dihydro-2H-1-benzopyran-6-yl)quinolin-5-yl]acetic acid] | 3.8
5 | CC(C)(C)OC(C(=O)O)c1ccc(-c2cccc(-c3cccnc3)c2)cc1-c1ccc2c(c1)CCCO2 (stereo not shown) [Example 30, methyl 2-(tert-butoxy)-2-[2-(3,4-dihydro-2H-1-benzopyran-6-yl)-4-[3-(pyridin-3-yl)phenyl]phenyl]acetic acid] | 4.2
6 | CC(C)(C)OC(C(=O)O)c1cccc(C(F)(F)F)c1-c1ccc2c(c1)CCCO2 (stereo not shown) [Example 21, 2-(tert-butoxy)-2-[2-(3,4-dihydro-2H-1-benzopyran-6-yl)-3-trifluoromethylphenyl]acetic acid] | 9.7
7 | Cc1cccc(C(OC(C)(C)C)C(=O)O)c1-c1ccc2c(c1)CCCO2 (stereo not shown) [Example 11, 2-(tert-butoxy)-2-[2-(3,4-dihydro-2H-1-benzopyran-6-yl)-3-methylphenyl] acetic acid] | 48
8 | CC(C)(C)OC(C(=O)O)c1c(C(F)(F)F)ccc(OCc2ccccc2)c1-c1ccc2c(c1)CCCO2 (stereo not shown) [Example 35, 2-[3-(benzyloxy)-2-(3,4-dihydro-2H-1-benzopyran-6-yl)-6-(trifluoromethyl)phenyl]-2-(tert-butoxy)acetic acid] | 3.2
9 | CC1(C)CC=C(c2cccc(C(F)(F)F)c2C(OC(C)(C)C)C(=O)O)CC1 (stereo not shown) [Example 36, 2-(tert-butoxy)-2-[2-(4,4-dimethylcyclohex-1-en-1-yl)-6-(trifluoromethyl)phenyl]acetic acid] | 4.5
10 | Cc1cccc(-c2ccc3c(c2)CCCO3)c1C(OC(C)(C)C)C(=O)O (stereo not shown) [Example 22, 2-(tert-butoxy)-2-[2-(3,4-dihydro-2H-1-benzopyran-6-yl)-6-methylphenyl]acetic acid] | 26
